{"source": "patent US20240009170A1", "about": "“INHIBITION OF GLYCOGEN SYNTHASE KINASE-3 (GSK-3)” (Brown University, priority 2020, published 2024)", "format_in_all_cases": "cell-based, Human", "key": {"TALL-104": {"tested_on": "TALL-104", "experiment": "Flow cytometric analysis of cell surface markers, TALL-104", "conditions": "compared to DMSO treatment alone", "method": "(§1) FIG. 12 is a set of bar graphs showing flow cytometric analyses of cell surface markers of tumor and immune cells treated with 9-ING-41 in vitro. FIG. 12(A) HCT-116, FIG. 12(B) HT-29, FIG. 12(C) TALL-104, and FIG. 12(D) NK-92 cells were treated with indicated concentrations of 9-ING-41 for forty-eight hours, stained for indicated cell surface marker expression, and analyzed with a BD LSRII. Statistical significance was determined using two-tailed unpaired T tests.\n(§2) To further understand the differential 9-ING-41-mediated impacts on protein expression, the inventors treated tumor and immune cells in vitro with 9-ING-41, then performed a flow cytometric analysis for expression of cell surface markers. […] A similar trend occurred in HT-29 cells, although not statistically significant. […] FIG. 10(C). […] FIG. 10(D)."}, "SW480 tumor cells [1]": {"tested_on": "SW480 tumor cells", "experiment": "Co-culture of NK-92 natural killer cells and SW480 tumor cells", "method": "(§3) Immune cell co-culture experiments. Co-culture experiments were conducted with GFP+ SW480 or HCT-116 colorectal cancer cells and either NK-92 natural killer cells or TALL-104 T cells in a 48-well plate, in the presence or absence of 9-ING-41. HCT-116 cells were labeled using CellTracker™ Green CMFDA (5-chloromethylfluorescein diacetate), immune cells (NK-92, TALL-104) were labeled using CellTracker™ Blue CMAC Dye (7-amino-4-chloromethylcoumarin), and ethidium homodimer-1 (EthD-1) was used as a marker of cell death (Invitrogen, Thermo Fisher Scientific, Waltham, MA, USA).\nCo-culture experiments were conducted with GFP+ SW480 colorectal cancer cells and either NK-92 natural killer cells or TALL-104 T cells at various effector/target ratios in a 48-well plate, in the presence or absence of 9-ING-41.\nThe inventors co-cultured green fluorescent SW480 tumor cells with NK-92 natural killer cells at a 1:1 effector target cell ratio (E:T) for twenty-four hours and imaged by fluorescence microscopy. Ethidium homodimer was used to visualize dead cells. The inventors obtained photographic images of the co-cultured cells.\nAn average baseline amount of NK-92-mediated tumor cell killing of about 39% occurred in the absence of drug."}, "HT-29": {"tested_on": "HT-29", "experiment": "Flow cytometric analysis of cell surface markers, HT-29", "conditions": "post-treatment, 48 hours", "method": "as §1, §2"}, "[2]": {"tested_on": "HCT-116 colorectal cancer cells", "experiment": "Co-culture of HCT-116 and TALL-104 cells with or without αPD-1 therapy", "conditions": "compared with the other culture conditions", "method": "as §3\n9-ING-41 increases tumor cell death in combination with αPD-1 therapy in a co-culture of HCT-116 colorectal cancer cells and immune cells. The inventors were interested in the applicability of GS3K-3 inhibitors such as 9-ING-41 in combination with immune checkpoint blockade. The inventors next performed co-cultures of immune cells (TALL-104, NK-92) and tumor cells (HCT-116) in the presence or absence of 9-ING-41, as well as either pembrolizumab® or nivolumab®, two humanized monoclonal antibodies against PD-1. The inventors evaluated HCT-116 cells in this co-culture model to determine if the 9-ING-41-mediated increase in immune cell-mediated SW480 cell killing could be reproduced in another colorectal cancer cell line."}, "SW480 tumor cells [3]": {"tested_on": "SW480 tumor cells", "experiment": "Co-culture of CD8+ donor-derived healthy T cells and SW480 tumor cells", "method": "Isolation of donor derived CD8+ T cells. An Easy Step Human CD8+ T Cell Isolation Kit was used to isolated CD8+ T cells from a donor PBMC sample via negative selection (Cat #, 17913, Stem Cell Technologies, Vancouver, Canada).\nas §3\nTALL-104 cells are a human leukemic T cell line. […] Healthy CD8+ T cells were isolated from a donor blood sample consistent with an IRB-approved protocol. A co-culture of GFP+ SW480 tumor cells and Green CM FDA-labeled CD8+ donor-derived healthy T cells was then treated with 9-ING-41 and the % of dead cells out of total cells was quantified after twenty-four hours. […] The data was then normalized, as described earlier.\nPre-treatment with 9-ING-41 sensitizes SW480 tumor cells to immune cell-mediated cell killing. […]"}, "[4]": {"tested_on": "HCT-116 colorectal cancer cells", "experiment": "Western blot analysis, HCT-116", "method": "Western blot analysis. Cells were plated in a 6-well plate and incubated overnight before the spent media was replaced with drugged media. Drug treatment lasted for indicated durations. Protein was extracted using radioimmunoprecipitation (RIPA) assay buffer (Cat #R0278, Sigma-Aldrich, St. Louis, MO) containing cOmplete™ Mini, EDTA-free Protease Inhibitor Cocktail (Cat #4693159001, Roche, Basel, Switzerland). Denaturing sample buffer was added, samples were boiled at 95 degrees for 10 minutes. An equal amount of protein lysate was electrophoresed through NuPAGE™ 4 to 12%, Bis-Tris, 1.5 mm, Mini Protein Gels (Invitrogen, Waltham, MA, USA) then transferred to PVDF membranes. The PVDF membrane was blocked with 5% non-fat milk (Sigma-Aldrich, St. Louis, MO, USA) in 1× TTBS. Primary antibodies were incubated with the transferred PVDF membrane in blocking buffer at 4° C. overnight. Secondary antibodies used included goat anti-rabbit IgG (H+L) secondary antibody, HRP (Cat #31460, Invitrogen, Waltham, MA, USA) and goat anti-mouse IgG (H+L) secondary antibody, HRP (Cat #31430, Invitrogen, Waltham, MA, USA). Signal was detected using a Syngene Imaging System.\n9-ING-41 treatment decreases survival factor expression while increasing PD-L1 levels in colorectal cancer cell lines. To elucidate the mechanism behind the differential effects of 9-ING-41 on either colorectal cancer or immune cells in co-culture and cytokine profiling assays, the inventors performed Western blot analyses on tumor and immune cells treated with 9-ING-41 over a 72-hour time course.\nTreating cells from colorectal cancer cell lines with 1 μM 9-ING-41 decreases Surivin, NF-κB p65, and IκBα while increasing PD-L1 levels in, 9-ING-41 treatment of immune cells increases NIK. Western blot analysis of HCT-116 and HT-29 colorectal cancer cells for expression of indicated proteins after increasing durations of 9-ING-41 treatment (0-72 hours). Western blot analysis of TALL-104 T cells for expression of indicated proteins after increasing durations of 9-ING-41 treatment (0-72 hours). Analysis of Mcl-1 expression in HCT-116 colorectal cancer cells and NK-92 natural killer cells after increasing durations of 9-ING-41 treatment."}}}
{"compound": "Cn1cc(C2=C(c3coc4ccc(F)cc34)C(=O)NC2=O)c2cc3c(cc21)OCO3", "note": "[9-ING-41]", "values": [{"measurement": "TRAIL expression", "setting": "TALL-104", "result": "significant decreased"}, {"measurement": "Natural Killer activity", "setting": "SW480 tumor cells [1]; IC50 dose, 1:1 E:T, 24 hours", "result": "stimulation of Natural Killer activity"}, {"measurement": "natural killer (NK-92) cell killing of colorectal cancer cells", "setting": "SW480 tumor cells [1]; compared to controls without drug treatment", "result": "significant increase"}, {"measurement": "HLA-E and PD-L1 surface expression", "setting": "HT-29", "result": "statistically significant increase"}, {"measurement": "cell death after twenty-four hours of co-culture with TALL-104", "setting": "[2]", "result": "even greater amount of cell death"}, {"measurement": "tumor cell death in co-cultures with CD8+ donor-derived healthy T cells", "setting": "SW480 tumor cells [3]; 24 hours, normalized", "result": "Even more impressive tumor cell death"}, {"measurement": "tumor cell death after tumor cell pre-treatment, CD8+ T cells", "setting": "SW480 tumor cells [3]; pre-treatment of tumor cells, 24 hours of co-culture", "result": "statistically significant increase in tumor cell death"}, {"measurement": "IKKR", "setting": "[4]; 1 μM, 0-72 hours", "result": "No changes"}, {"measurement": "Survivin, NF-κB-inducing kinase (NIK), NF-κB, IKBα, pIKBα, and Bcl-2", "setting": "[4]; 1 μM, by the 72-hour timepoint", "result": "decreases"}, {"measurement": "cPARP", "setting": "[4]; 1 μM, until the 48-hour timepoint", "result": "little to no cPARP"}, {"measurement": "PD-L1 expression", "setting": "[4]; as the treatment duration increased", "result": "increases"}, {"measurement": "Mcl-1 protein expression", "setting": "[4]; by the 24-hour timepoint", "result": "marked decreases"}]}
